Results on 1 molecule are retold here after patent US8017350B2, “Glimepiride- and insulin-induced glycosylphosphatidylinositol-specific phospholipase C regulation” (Sanofi-Aventis Deutschland GmbH, priority 2004, dated 2011).

In the assay the target is PI-PLC, Bacillus cereus (recombinant) (Bacillus cereus, UniProt P14262). Nature of the assay: Inhibition of PI-PLC (B. cereus), cleavage of GPI-protein, TX-114 partitioning. It is filed as biochemical. The source says:
Human recombinant insulin, PIG41 (disclosed in “Frick, W. et al., (1998) Biochemistry 37, 13421-13436”) and glimepiride (trade name Amaryl) were supplied by the medicinal chemistry and synthesis departments of Aventis Pharma Germany (Frankfurt, Germany). 12-((7-nitrobenz-2-oxa-1,3-diazol-4-yl)amino)dodecanoic acid (NBD-FA) was synthesized as described in Müller et al., (1997) Biochem. Biophys. Acta 1347: 23-39. Collagenase (Worthington, CLS, type I, 250 units/mg) was provided by Biochrom (Berlin, Germany). Lipoprotein lipase (LPL, affinity-purified) from bovine milk, phospholipase A2 (honey bee venom), crude porcine pancreatic lipase (PL), recombinant PC- and PI-PLC (Bacillus cereus), crude PLD (cabbage) and defatted BSA (fraction V) were delivered by SigmalAldrich (Deisenhofen, Germany), crude PI-PLC (rat liver) and proteinase inhibitors were purchased from Roche Molecular Biochemicals (Mannheim, Germany). Recombinant GPI-PLC (Trypanosoma brucei) was obtained from Oxford Glycosystems (Oxford, UK). Inhibitors of PLA2 (AACOCF3) and PLC (U 73122) were from Tocris (Avonmouth, UK). Bisbodipy-C11-PC was bought from Molecular Probes (Eugene, Oreg.). Lipids were purchased from Avanti Polar Lipids (Birmingham, Ala.). […]

PI-PLC, Bacillus cereus (recombinant), sequence (P14262 32-329 limits assumed): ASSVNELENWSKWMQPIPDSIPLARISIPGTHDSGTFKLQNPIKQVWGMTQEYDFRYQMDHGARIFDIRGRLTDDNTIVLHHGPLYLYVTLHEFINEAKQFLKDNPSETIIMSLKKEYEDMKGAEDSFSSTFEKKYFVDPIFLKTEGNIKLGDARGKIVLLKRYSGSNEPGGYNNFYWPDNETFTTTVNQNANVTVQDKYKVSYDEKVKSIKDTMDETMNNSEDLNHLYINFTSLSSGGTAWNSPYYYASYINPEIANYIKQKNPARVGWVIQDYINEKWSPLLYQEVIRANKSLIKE

Regarding `CCCCCCCCCCCCP1(=O)O[C@@H]2[C@H](O)[C@@H](O)[C@H](O)[C@@H](O)[C@@H]2O1` (stereo partly shown) [GPI-2350, myo-inositol-1,2-cyclo-dodecylphosphonic acid], the inhibition in words entry was “potent inhibitor”.
